Laboratory results published in patent US9642861B2, “Methods of treating oral mucositis” (priority 2006, dated 2017).

Experiments:
[1] = ACT-03 (Example 2): weights and survival; format: in vivo, Syrian Golden Hamsters; settings: for Survival (animal status in score table): individual animal, by day 6
From the text: All animals were weighed daily and their survival recorded, in order to assess possible differences in animal weight among treatment groups as an indication for mucositis severity and/or possible toxicity resulting from the treatments.
All seventy-two (72) male Syrian Golden Hamsters were given an acute radiation dose of 40 Gy directed to their left buccal cheek pouch. This was accomplished by anesthetizing the animals and everting the left buccal pouch, while protecting the rest of the animal with a lead shield. Test materials were given either topically or by ip injection twice daily as detailed in Table 5. Mucositis was evaluated clinically starting on day 6, and continuing on alternate days until day 28. The study timeline is depicted in FIG. 7. Dose levels were determined based on the results of a previous acute toxicity study (data not published), and in the prior mucositis study of Example 1, shown in Table 5.
Male LVG Syrian Golden Hamsters (Charles River Laboratories), aged 5 to 6 weeks, with average body weight of […] at study commencement, were used. Animals were individually numbered using an ear punch and housed in small groups of approximately 8 animals per cage. Animals were acclimatized prior to study commencement. During this period of 3 days, the animals were observed daily in order to reject animals that presented in poor condition.
The significance of these differences was evaluated by calculating the mean area under the curve for the percentage weight gain for each animal and comparing the groups using a One-Way ANOVA test. There were significant differences between the vehicle control group and the group treated with M40403 at 30 mg/kg/dose once daily from day −1 to day 3 (P=0.039), he group treated with M40403 at 3 mg/kg/dose twice daily from day −1 to day 3 (P=0.040), the group treated with M40403 at 10 mg/kg/dose twice daily from day −1 to day 3 (0.018), the group treated with M40403 at 30 mg/kg/dose twice daily from day −1 to day 3 (P<0.001), the group treated with M40403 at 30 mg/kg/dose once daily from day 0 to day 3 (P=0.009) and the group treated with M40403 at 30 mg/kg/dose twice daily from day 0 to day 3 (P=0.002).

[2] = system: animal models of inflammation; settings: in vivo; cited from earlier work

[Cl-].[Cl-].[Mn+2].c1cc2nc(c1)CN[C@@H]1CCCC[C@H]1NCCN[C@@H]1CCCC[C@H]1NC2 [M40403]
deaths during the study, all on the day of radiation (Day 0) ([1]; 30 mg/kg once daily day 0 to 3): Two
deaths during the study, all on the day of radiation (Day 0) ([1]; 30 mg/kg once daily day −1 to 3): Two
deaths during the study, all on the day of radiation (Day 0) ([1]; 30 mg/kg once daily on day 0 and day 7 (so in the source)): One
deaths during the study, all on the day of radiation (Day 0) ([1]; 30 mg/kg twice daily day −1 to 3): Two
survival status noted in Animal Weights table ([1]; first study, group 9 (30 mg/kg/dose twice daily on day 0 and on day 7), animal 70, day 0): dead
Survival (animal status in score table) ([1]; group 2): dead
Survival (animal status in score table) ([1]; group 5): dead
Survival (animal status in score table) ([1]; group 6): dead
toxicity based on observations of body weight ([1]; hamster, in vivo, ip): appear to show some toxicity
P, One-Way ANOVA on mean AUC of percentage weight gain v vehicle control ([1]; hamster, in vivo, ip, 3 mg/kg): 0.040
average weight gain, % of starting weight during the study (day 28) ([1]; hamster, in vivo, ip, 3 mg/kg): 59.3%
P, One-Way ANOVA on mean AUC of percentage weight gain v vehicle control ([1]; hamster, in vivo, ip, 10 mg/kg): 0.018
average weight gain, % of starting weight during the study (day 28) ([1]; hamster, in vivo, ip, 10 mg/kg): 56.2%
statistically significant reduction in growth rate v control ([1]; hamster, in vivo, ip, 30 mg/kg): did not exhibit some statistically significant reductions in growth rate
Survival (animal recorded dead in weight table) ([1]; second study, group 6, animal 45 on day 0, animal 46 on day 1): dead
efficacy in animal models of inflammation [2]: effective
